# Laboratory results from ChEMBL document CHEMBL4038275, “t-Butyl pyridine and phenyl C-region analogues of 2-(3-fluoro-4-methylsulfonylaminophenyl)propanamides as potent TRPV1 antagonists” (Bioorg Med Chem, 2017).
# Activity calls are given as the source filed them. The rule behind the calls is not given here.
# System: Mus musculus
# Assay: Analgesic activity in po dosed Bennett mouse model of neuropathic pain assessed as reduction in chronic constriction injury-induced cold allodynia
# Type: functional, organism-based
row,Compound,Activity
1,C[C@H](C(=O)NCc1ccc(C(C)(C)C)cc1SC1CCCCC1)c1ccc(NS(C)(=O)=O)c(F)c1,Dose-dependent effect

# System: Mus musculus
# Assay: Analgesic activity in mouse assessed as reduction in capsaicin induced hypothermia at 10 mg/kg, po relative to control
# Type: functional
row,Compound,MPE
1,C[C@H](C(=O)NCc1ccc(C(C)(C)C)nc1SC1CCCCC1)c1ccc(NS(C)(=O)=O)c(F)c1,15%

# System: Mus musculus
# Assay: Analgesic activity in mouse assessed as reduction in capsaicin induced hypothermia at 3 mg/kg, po relative to control
# Type: functional
row,Compound,MPE
1,C[C@H](C(=O)NCc1ccc(C(C)(C)C)nc1SC1CCCCC1)c1ccc(NS(C)(=O)=O)c(F)c1,46%

# Molecular target: Transient receptor potential cation channel subfamily V member 1 (Homo sapiens, UniProt Q8NER1)
# Sequence (Q8NER1 whole entry): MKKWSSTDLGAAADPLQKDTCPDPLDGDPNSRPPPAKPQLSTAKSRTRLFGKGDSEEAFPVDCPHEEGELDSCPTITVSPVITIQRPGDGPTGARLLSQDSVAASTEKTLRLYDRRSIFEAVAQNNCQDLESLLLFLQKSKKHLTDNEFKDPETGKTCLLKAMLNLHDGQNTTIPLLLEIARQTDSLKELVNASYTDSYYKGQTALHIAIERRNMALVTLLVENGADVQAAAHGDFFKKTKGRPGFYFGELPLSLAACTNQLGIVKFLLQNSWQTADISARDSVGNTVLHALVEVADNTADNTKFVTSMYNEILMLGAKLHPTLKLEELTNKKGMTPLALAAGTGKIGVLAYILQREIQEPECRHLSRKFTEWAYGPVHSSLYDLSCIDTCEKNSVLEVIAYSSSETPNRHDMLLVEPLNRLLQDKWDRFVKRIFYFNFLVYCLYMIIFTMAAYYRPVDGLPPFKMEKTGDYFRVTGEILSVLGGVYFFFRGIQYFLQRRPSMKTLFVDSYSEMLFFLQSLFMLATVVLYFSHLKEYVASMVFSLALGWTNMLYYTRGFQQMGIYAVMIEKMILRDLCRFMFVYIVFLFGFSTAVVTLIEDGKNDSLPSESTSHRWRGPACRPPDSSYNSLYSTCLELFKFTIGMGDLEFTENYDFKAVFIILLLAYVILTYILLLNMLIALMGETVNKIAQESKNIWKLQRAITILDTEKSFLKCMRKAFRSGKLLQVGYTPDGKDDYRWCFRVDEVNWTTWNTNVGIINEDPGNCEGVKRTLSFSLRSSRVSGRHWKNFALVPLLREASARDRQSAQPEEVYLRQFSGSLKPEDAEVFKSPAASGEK
# Assay: Antagonist activity at human TRPV1 expressed in CHOK1 cells assessed as inhibition of capsaicin induced calcium influx pretreated for 6 mins followed by capsaicin addition by Fluo-4/Pluronic F127 probe based FLIPR method
# Type: cell-based
row,Compound,Ki
1,CC(C(=O)NCc1ccc(C(C)(C)C)nc1SCCCN(C)C)c1ccc(NS(C)(=O)=O)c(F)c1 (stereo not drawn),51.8 nM
2,CCCCCc1nc(C(C)(C)C)ccc1CNC(=O)C(C)c1ccc(NS(C)(=O)=O)c(F)c1 (stereo not drawn),1.9 nM
3,C[C@H](C(=O)NCc1ccc(C(C)(C)C)nc1SC1CCCCC1)c1ccc(NS(C)(=O)=O)c(F)c1,3.4 nM
4,CC(C(=O)NCc1ccc(C(C)(C)C)nc1SC1CCCC1)c1ccc(NS(C)(=O)=O)c(F)c1 (stereo not drawn),2.5 nM
5,CC(C(=O)NCc1ccc(C(C)(C)C)nc1N1CCCCC1)c1ccc(NS(C)(=O)=O)c(F)c1 (stereo not drawn),1.1 nM
6,CCCCCCSc1nc(C(C)(C)C)ccc1CNC(=O)C(C)c1ccc(NS(C)(=O)=O)c(F)c1 (stereo not drawn),1.5 nM
7,CC(C(=O)NCc1ccc(C(C)(C)C)nc1SCCCN1CCCC1)c1ccc(NS(C)(=O)=O)c(F)c1 (stereo not drawn),17.1 nM
8,CC(C(=O)NCc1ccc(C(C)(C)C)nc1SCCCN1CCOCC1)c1ccc(NS(C)(=O)=O)c(F)c1 (stereo not drawn),112 nM
9,C[C@@H](C(=O)NCc1ccc(C(C)(C)C)cc1SC1CCCCC1)c1ccc(NS(C)(=O)=O)c(F)c1,89.2 nM
10,CCCCCSc1nc(C(C)(C)C)ccc1CNC(=O)C(C)c1ccc(NS(C)(=O)=O)c(F)c1 (stereo not drawn),3.1 nM
11,CC(C(=O)NCc1ccc(C(C)(C)C)nc1SCC(F)(F)F)c1ccc(NS(C)(=O)=O)c(F)c1 (stereo not drawn),4.1 nM
12,CCCCSc1nc(C(C)(C)C)ccc1CNC(=O)C(C)c1ccc(NS(C)(=O)=O)c(F)c1 (stereo not drawn),3.2 nM
13,CC(C(=O)NCc1ccc(C(C)(C)C)cc1N1CCCCCC1)c1ccc(NS(C)(=O)=O)c(F)c1 (stereo not drawn),6.2 nM
14,C[C@H](C(=O)NCc1ccc(C(C)(C)C)cc1SC1CCCCC1)c1ccc(NS(C)(=O)=O)c(F)c1,6 nM
15,C[C@@H](C(=O)NCc1ccc(C(C)(C)C)nc1SC1CCCCC1)c1ccc(NS(C)(=O)=O)c(F)c1,36.4 nM
16,CC(C)CCSc1nc(C(C)(C)C)ccc1CNC(=O)C(C)c1ccc(NS(C)(=O)=O)c(F)c1 (stereo not drawn),5.9 nM
17,CCC1CCN(c2nc(C(C)(C)C)ccc2CNC(=O)C(C)c2ccc(NS(C)(=O)=O)c(F)c2)CC1 (stereo not drawn),0.1 nM
18,CCCCN(C)c1nc(C(C)(C)C)ccc1CNC(=O)C(C)c1ccc(NS(C)(=O)=O)c(F)c1 (stereo not drawn),1.2 nM
19,CC(C(=O)NCc1ccc(C(C)(C)C)nc1C1CCCCC1)c1ccc(NS(C)(=O)=O)c(F)c1 (stereo not drawn),3.1 nM
20,CC(C(=O)NCc1ccc(C(C)(C)C)nc1SC1CCCCC1)c1ccc(NS(C)(=O)=O)c(F)c1 (stereo not drawn),8.5 nM

# The remaining lines, values ahead:
row,Ki,Compound
1,6 nM,COc1cccc(COc2nc(C(C)(C)C)ccc2CNC(=O)C(C)c2ccc(NS(C)(=O)=O)c(F)c2)c1 (stereo not drawn)
2,6.7 nM,CCCCSc1cc(C(C)(C)C)ccc1CNC(=O)C(C)c1ccc(NS(C)(=O)=O)c(F)c1 (stereo not drawn)
3,4 nM,CC(C(=O)NCc1ccc(C(C)(C)C)nc1SCc1ccccc1)c1ccc(NS(C)(=O)=O)c(F)c1 (stereo not drawn)
4,0.8 nM,CC(C(=O)NCc1ccc(C(C)(C)C)cc1N1CCN(c2ccccc2)CC1)c1ccc(NS(C)(=O)=O)c(F)c1 (stereo not drawn)
5,0.5 nM,CCCCCCOc1cc(C(C)(C)C)ccc1CNC(=O)C(C)c1ccc(NS(C)(=O)=O)c(F)c1 (stereo not drawn)
6,9.8 nM,CC(C(=O)NCc1ccc(C(C)(C)C)cc1C1CCCCC1)c1ccc(NS(C)(=O)=O)c(F)c1 (stereo not drawn)
7,0.8 nM,CC(C(=O)NCc1ccc(C(C)(C)C)nc1OCc1ccc(F)cc1)c1ccc(NS(C)(=O)=O)c(F)c1 (stereo not drawn)
8,3.8 nM,CC(C(=O)NCc1ccc(C(C)(C)C)nc1SCc1ccccc1Cl)c1ccc(NS(C)(=O)=O)c(F)c1 (stereo not drawn)
9,4.4 nM,CCCOc1cc(C(C)(C)C)ccc1CNC(=O)C(C)c1ccc(NS(C)(=O)=O)c(F)c1 (stereo not drawn)
10,3.4 nM,CC(C(=O)NCc1ccc(C(C)(C)C)nc1SCc1ccc(Cl)cc1)c1ccc(NS(C)(=O)=O)c(F)c1 (stereo not drawn)
11,8.1 nM,CC(C(=O)NCc1ccc(C(C)(C)C)cc1N1CCCC1)c1ccc(NS(C)(=O)=O)c(F)c1 (stereo not drawn)
12,2.8 nM,CCCCCc1cc(C(C)(C)C)ccc1CNC(=O)C(C)c1ccc(NS(C)(=O)=O)c(F)c1 (stereo not drawn)
13,3.8 nM,CC(C(=O)NCc1ccc(C(C)(C)C)cc1OCc1ccc(F)cc1)c1ccc(NS(C)(=O)=O)c(F)c1 (stereo not drawn)
14,0.3 nM,CC(C(=O)NCc1ccc(C(C)(C)C)nc1-c1ccc(F)cc1)c1ccc(NS(C)(=O)=O)c(F)c1 (stereo not drawn)
15,0.3 nM,CC(C(=O)NCc1ccc(C(C)(C)C)nc1N1CCC(Cc2ccccc2)CC1)c1ccc(NS(C)(=O)=O)c(F)c1 (stereo not drawn)
16,7.4 nM,CC(C(=O)NCc1ccc(C(C)(C)C)cc1SC1CCCCC1)c1ccc(NS(C)(=O)=O)c(F)c1 (stereo not drawn)
17,3.5 nM,COc1ccc(CSc2nc(C(C)(C)C)ccc2CNC(=O)C(C)c2ccc(NS(C)(=O)=O)c(F)c2)cc1 (stereo not drawn)
18,0.7 nM,CC1CCN(c2cc(C(C)(C)C)ccc2CNC(=O)C(C)c2ccc(NS(C)(=O)=O)c(F)c2)CC1 (stereo not drawn)
19,1.9 nM,CC(C(=O)NCc1ccc(C(C)(C)C)cc1N1CCCCC1)c1ccc(NS(C)(=O)=O)c(F)c1 (stereo not drawn)
20,0.6 nM,CC(C)CCOc1cc(C(C)(C)C)ccc1CNC(=O)C(C)c1ccc(NS(C)(=O)=O)c(F)c1 (stereo not drawn)
21,1 nM,CCCCN(C)c1cc(C(C)(C)C)ccc1CNC(=O)C(C)c1ccc(NS(C)(=O)=O)c(F)c1 (stereo not drawn)
22,2.9 nM,CC(C(=O)NCc1ccc(C(C)(C)C)cc1OCc1ccccc1)c1ccc(NS(C)(=O)=O)c(F)c1 (stereo not drawn)

# System: Mus musculus
# Assay: Analgesic activity in Bennett mouse model of neuropathic pain assessed as reduction in chronic constriction injury-induced cold allodynia at 10 mg/kg, po relative to control
# Type: functional
Compound,Activity,MPE
C[C@H](C(=O)NCc1ccc(C(C)(C)C)nc1SC1CCCCC1)c1ccc(NS(C)(=O)=O)c(F)c1,Active,
C[C@H](C(=O)NCc1ccc(C(C)(C)C)cc1SC1CCCCC1)c1ccc(NS(C)(=O)=O)c(F)c1,,83%

# System: Mus musculus
# Assay: Analgesic activity in Bennett mouse model of neuropathic pain assessed as reduction in chronic constriction injury-induced cold allodynia at 3 mg/kg, po relative to control
# Type: functional
row,Compound,MPE
1,C[C@H](C(=O)NCc1ccc(C(C)(C)C)nc1SC1CCCCC1)c1ccc(NS(C)(=O)=O)c(F)c1,50%
